Reference: patent US9732088B2, “C2-carbocyclic iminothiazine dioxides as BACE inhibitors, compositions, and their use” (Merck Sharp & Dohme Corp., priority 2014, dated 2017)
pKi: −log10 of the molar value.

Experiments:
[1] = molecular target: soluble human BACE-1 catalytic domain (Homo sapiens (Human), UniProt P56817); assay: BACE-1 Ki Assay (BACE-1 HTRF FRET Assay); assay type: biochemical; settings: Assay 1; Ki calculated from IC50 by Cheng-Prusoff
Procedure, shortened: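 Recombinant human BACE-1 catalytic domain (3 nM in 10 μl) preincubated with inhibitor 30 min at 30° C, pH 5.0 acetate buffer with 7.5% DMSO, then 200 nM final QSY7-APPswe-Eu substrate for 1.5 h; 620 nm time-resolved fluorescence read. IC50 from nonlinear regression converted to Ki by Cheng-Prusoff using Km 8 μM.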

[2] = molecular target: purified human Cathepsin-D (Homo sapiens (Human), UniProt P07339); assay: Cathepsin-D Assay (time-resolved FRET); assay type: biochemical; settings: Assay 4; Ki calculated from IC50 by Cheng-Prusoff;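 note: Europium-labelled peptide substrate with QSY7 quencher, cleavage read as 620 nm fluorescence after 30 min preincubation then 30 min reaction at 30 °C, pH 5.0, inhibition lowers signal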
Method: Assay 4: Cathepsin-D Assay
This substrate contains an C-terminal QSY7 moiety that serves as a quencher of the N-terminal Europium fluorophore (620 nm Em). In the absence of enzyme activity, 620 nm fluorescence is low in the assay and increased linearly over 1 hour in the presence of uninhibited Cathepsin-D enzyme. Inhibition of Cathespin D cleavage of the Eu-Aspartyl Protease-QSY7 substrate by inhibitors is manifested as a suppression of 620 nm fluorescence.
Varying concentrations of inhibitors in a volume of 100 nl are preincubated with purified human Cathepsin-D (0.1 nM in 10 μl) for 30 minutes at 30° C. in reaction buffer containing 100 mM Na-Acetate pH 5.0, and 0.02% Brij-35. Reactions are initiated by addition of 10 μl of 100 nM Eu-Aspartyl Protease-QSY7 substrate (50 nM final) to give a final reaction volume of 20 μl in a 384 well Nunc HTRF plate. The reactions are incubated at 30° C. for 30 minutes. The 620 nm fluorescence is then read on a Envision Multilabel plate reader (Perkin-Elmer) using a 200 microsecond delay followed by a 400 microsecond acquisition time window. Inhibitor IC50 values are derived from non-linear regression analysis of concentration response curves.

BACE-1 = BACE-1 (Homo sapiens (Human), UniProt P56817); assay: BACE-1 Cellular Assay (Aβ in HEK293-APPswe/lon cells); assay type: cell-based; settings: 4 hours
Procedure, shortened: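 HEK293 cells stably expressing human APP with Swedish and London FAD mutations, cultured at 37° C., 5% CO2. Aβ40 or Aβ42 in conditioned media measured by electrochemiluminescent ELISA (WO2 capture; G2-10 or G2-11 detection). IC50 from variable-slope sigmoidal fit of signal versus compound concentration.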

[3] = molecular target: purified human autoBACE-2 (Homo sapiens (Human), UniProt Q9Y5Z0); assay: BACE-2 Assay (BACE-HTRF assay); assay type: biochemical; settings: Assay 2; Ki calculated from IC50 by Cheng-Prusoff; read-out: BACE2 Ki
Procedure, shortened: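 Purified human autoBACE-2 (1 nM final) pre-incubated 30 min at 30° C with compounds in 20 mM sodium acetate pH 5.0, 10% glycerol, 0.1% Brij-35, 5% DMSO final; endpoint HTRF cleavage of QSY7/Eu FRET peptide, read at 620 nm (320 nm excitation). IC50 by sigmoidal regression of normalized data; Ki by Cheng-Prusoff.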

purified human autoBACE-2, sequence (Q9Y5Z0 63-466): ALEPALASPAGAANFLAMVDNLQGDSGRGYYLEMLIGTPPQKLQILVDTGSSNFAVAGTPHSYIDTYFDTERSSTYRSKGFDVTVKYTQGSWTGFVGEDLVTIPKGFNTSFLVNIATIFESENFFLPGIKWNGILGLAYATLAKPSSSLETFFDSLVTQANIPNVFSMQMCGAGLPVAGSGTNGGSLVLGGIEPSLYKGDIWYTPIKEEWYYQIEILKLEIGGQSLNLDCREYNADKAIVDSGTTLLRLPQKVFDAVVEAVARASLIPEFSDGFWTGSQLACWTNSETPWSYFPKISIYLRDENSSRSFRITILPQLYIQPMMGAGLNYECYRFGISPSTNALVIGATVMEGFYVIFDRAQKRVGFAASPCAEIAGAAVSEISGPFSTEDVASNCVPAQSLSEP
BACE-1, sequence (P56817 46-501): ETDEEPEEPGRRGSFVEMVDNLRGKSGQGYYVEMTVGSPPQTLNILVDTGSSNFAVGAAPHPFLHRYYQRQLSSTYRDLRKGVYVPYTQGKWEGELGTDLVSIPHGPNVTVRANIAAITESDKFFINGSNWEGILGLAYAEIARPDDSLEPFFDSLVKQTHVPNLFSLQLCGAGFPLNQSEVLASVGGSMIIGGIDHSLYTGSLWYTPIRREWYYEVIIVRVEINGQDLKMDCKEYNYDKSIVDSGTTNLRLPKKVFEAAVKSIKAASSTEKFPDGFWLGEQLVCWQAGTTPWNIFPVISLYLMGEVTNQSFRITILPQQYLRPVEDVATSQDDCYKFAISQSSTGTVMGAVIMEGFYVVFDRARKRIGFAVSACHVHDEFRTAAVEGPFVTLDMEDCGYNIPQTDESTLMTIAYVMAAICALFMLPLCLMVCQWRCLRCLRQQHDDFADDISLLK
soluble human BACE-1 catalytic domain, sequence (P56817 75-416): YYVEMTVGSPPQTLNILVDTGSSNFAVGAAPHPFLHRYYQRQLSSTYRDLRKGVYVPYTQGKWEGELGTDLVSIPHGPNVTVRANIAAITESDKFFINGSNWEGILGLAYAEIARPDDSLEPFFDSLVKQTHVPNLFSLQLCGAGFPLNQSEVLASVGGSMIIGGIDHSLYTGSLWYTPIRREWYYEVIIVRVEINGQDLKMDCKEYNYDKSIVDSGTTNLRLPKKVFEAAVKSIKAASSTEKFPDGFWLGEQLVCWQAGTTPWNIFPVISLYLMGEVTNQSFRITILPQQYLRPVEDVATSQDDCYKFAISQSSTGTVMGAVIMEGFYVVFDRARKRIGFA
purified human Cathepsin-D, sequence (P07339 65-412): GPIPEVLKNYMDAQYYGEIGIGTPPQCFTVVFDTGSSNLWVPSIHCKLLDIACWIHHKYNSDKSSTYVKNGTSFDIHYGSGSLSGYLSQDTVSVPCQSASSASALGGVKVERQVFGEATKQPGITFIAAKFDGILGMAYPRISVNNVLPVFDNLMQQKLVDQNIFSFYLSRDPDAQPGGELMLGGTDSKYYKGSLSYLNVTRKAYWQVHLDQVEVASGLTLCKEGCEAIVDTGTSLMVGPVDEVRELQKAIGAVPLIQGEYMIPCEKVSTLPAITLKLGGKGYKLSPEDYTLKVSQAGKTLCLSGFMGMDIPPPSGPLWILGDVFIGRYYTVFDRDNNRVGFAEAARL

Row | SMILES | pKi [1] | Ki [2] [nM] | IC50 (BACE-1) [nM] | pKi [3]
1 | COc1cnc2c(Nc3ccc(F)c([C@]4(C)CS(=O)(=O)C(C)(C)C(N)=N4)c3)nccc2n1 [Ex 47 of WO2014059185, reference compound] | 8.48 |  |  | 
2 | C[C@@]1(c2nc(Nc3nccc4cc(C#N)cnc34)ncc2F)CS(=O)(=O)[C@@](C)(C2CC2)C(N)=N1 [Example 5, 8-({4-[(3R,6S)-6-cyclopropyl-5-imino-3,6-dimethyl-1,1-dioxidothiomorpholin-3-yl]-5-fluoropyrimidin-2-yl}amino)-1,7-naphthyridine-3-carbonitrile] | 8.06 | 710 | 10 | 8.11
3 | COc1cnc2c(Nc3cc([C@]4(C)CS(=O)(=O)[C@@](C)(C5CC5)C(N)=N4)c(F)cn3)nccc2c1 [Example 6, N-{4-[(3R,6S)-6-cyclopropyl-5-imino-3,6-dimethyl-1,1-dioxidothiomorpholin-3-yl]-5-fluoropyridin-2-yl}-3-methoxy-1,7-naphthyridin-8-amine] | 8.59 | > 9400 | 3 | 9.24
4 | COc1cnc2c(Nc3ccc(F)c([C@]4(C)CS(=O)(=O)[C@@](C)(C5CC5)C(N)=N4)c3)nccc2c1 [Example 14, N-{3-[(3R,6S)-6-cyclopropyl-5-imino-3,6-dimethyl-1,1-dioxidothiomorpholin-3-yl]-4-fluorophenyl}-3-methoxy-1,7-naphthyridin-8-amine] | 8.03 | 1650 | 21 | 8.55
5 | C[C@@]1(c2cc(Nc3ncnc4cc(C#N)cnc34)ccc2F)CS(=O)(=O)[C@@](C)(C2CC2)C(N)=N1 [Example 16, 4-({3-[(3R,6S)-6-cyclopropyl-5-imino-3,6-dimethyl-1,1-dioxidothiomorpholin-3-yl]-4-fluorophenyl}amino)pyrido[3,2-d]pyrimidine-7-carbonitrile] | 8.66 | 2450 | 2.6 | 8.85
6 | C[C@@]1(c2cc(Nc3nccc4cc(C#N)cnc34)ccc2F)CS(=O)(=O)[C@@](C)(C2CC2)C(N)=N1 [Example 18, 8-({3-[(3R,6S)-6-cyclopropyl-5-imino-3,6-dimethyl-1,1-dioxidothiomorpholin-3-yl]-4-fluorophenyl}amino)-1,7-naphthyridine-3-carbonitrile] | 8.80 | 651 | 4.8 | 9.19
7 | COc1cnc2c(Nc3ccc(F)c([C@]4(C)CS(=O)(=O)[C@@](C)(C5CC5)C(N)=N4)c3)ncnc2n1 [Example 22, (2S,5R)-2-cyclopropyl-5-(2-fluoro-5-((7-methoxypteridin-4-yl)amino)phenyl)-3-imino-2,5-dimethylthiomorpholine 1,1-dioxide] | 7.85 | > 9400 | 15 | 7.96
8 | CC1(C)C(=N)N[C@](C)(c2cc(Nc3noc4cc(F)cnc34)ccc2F)CS1(=O)=O [WO′426 Ex. 30b, reference compound] | 7.72 |  | 82 | 8.21
